Test results: article PMC10641818, “Development of First-in-Class Dual Sirt2/HDAC6 Inhibitors as Molecular Tools for Dual Inhibition of Tubulin Deacetylation” (Journal of Medicinal Chemistry, 2023)

Experiments:
Type in all cases: biochemical
Sirt2 (demyristoylation) = Sirt2 (demyristoylation) (Homo sapiens, UniProt Q8IXJ6); test: Continuous Sirt2 demyristoylation assay (myristoylated peptide substrate); settings: peptide-based myristoylated substrate, triplicate; read-out: Sirt2-mediated demyristoylation IC50
Sirt2 (demyristoylation), sequence (Q8IXJ6 whole entry): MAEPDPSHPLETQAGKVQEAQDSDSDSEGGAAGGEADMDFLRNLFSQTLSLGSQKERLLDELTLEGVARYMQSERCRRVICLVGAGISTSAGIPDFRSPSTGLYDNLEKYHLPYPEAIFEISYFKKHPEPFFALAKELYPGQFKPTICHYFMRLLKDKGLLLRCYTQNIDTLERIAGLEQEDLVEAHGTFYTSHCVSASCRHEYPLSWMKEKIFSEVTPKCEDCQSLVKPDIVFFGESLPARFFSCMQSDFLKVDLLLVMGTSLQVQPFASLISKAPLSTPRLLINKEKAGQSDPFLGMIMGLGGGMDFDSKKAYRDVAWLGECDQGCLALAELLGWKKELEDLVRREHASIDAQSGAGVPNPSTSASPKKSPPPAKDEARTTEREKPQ
Description: As a second method to confirm the inhibition of Sirt2-mediated demyristoylation by 33, we used a continuous Sirt2 demyristoylation assay as reported by Zessin et al.[48] In brief, this assay was performed in a black 384-well fluorescence plate in a total volume of 40 μL of Sirt assay buffer (20 mM Tris-HCl, 150 mM NaCl, 5 mg/mL MgCl2, 2 mg/mL BSA, pH 7.8). Dilution series of the inhibitor was done in DMSO. A total of 2 μL of the inhibitor dilutions were incubated with 14 μL of the peptide substrate, referred to as F4 in Zessin et al.[48] (final concentration 40 nM) and 14 μL of Sirt2 solution (final concentration 1 nM) for 5 min at room temperature. In addition to the inhibitor-containing samples, a sample without inhibitors was measured as a positive control, and a sample without enzymes was measured as a negative control. The DMSO concentration was set to 5% (v/v). The reaction was started by the addition of 10 μL of NAD^+ (final concentration 500 μM). The product formation was monitored by the change in fluorescence intensity, and the reaction rate represented the activity. Fluorescence readout was performed with a BMG Fluostar Omega plate reader at following wavelengths: Excitation wavelength: λEx = 485 ± 10 nm, emission wavelength: λEm = 530 ± 10 nm. Inhibition was calculated using the following equation: [drawing 1] […]

Sirt6 = Sirt6 (Homo sapiens, UniProt Q8N6T7); test: Sirt6 in vitro deacylation HPLC assay
Sirt6, sequence (Q8N6T7 whole entry, species assumed): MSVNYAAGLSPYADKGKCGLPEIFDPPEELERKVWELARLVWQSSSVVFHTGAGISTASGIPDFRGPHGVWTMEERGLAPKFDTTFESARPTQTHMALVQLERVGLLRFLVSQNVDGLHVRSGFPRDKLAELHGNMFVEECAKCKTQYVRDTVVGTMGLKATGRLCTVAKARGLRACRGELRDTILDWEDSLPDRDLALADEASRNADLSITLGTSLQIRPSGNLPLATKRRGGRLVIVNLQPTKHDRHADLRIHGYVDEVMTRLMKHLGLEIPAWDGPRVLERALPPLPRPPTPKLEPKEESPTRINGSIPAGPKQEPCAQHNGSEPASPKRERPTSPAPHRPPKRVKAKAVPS

HDAC9 = HDAC9 (Homo sapiens, UniProt Q9UKV0); test: HDAC9 continuous fluorescence deacylation assay
HDAC9, sequence (Q9UKV0 whole entry, species assumed): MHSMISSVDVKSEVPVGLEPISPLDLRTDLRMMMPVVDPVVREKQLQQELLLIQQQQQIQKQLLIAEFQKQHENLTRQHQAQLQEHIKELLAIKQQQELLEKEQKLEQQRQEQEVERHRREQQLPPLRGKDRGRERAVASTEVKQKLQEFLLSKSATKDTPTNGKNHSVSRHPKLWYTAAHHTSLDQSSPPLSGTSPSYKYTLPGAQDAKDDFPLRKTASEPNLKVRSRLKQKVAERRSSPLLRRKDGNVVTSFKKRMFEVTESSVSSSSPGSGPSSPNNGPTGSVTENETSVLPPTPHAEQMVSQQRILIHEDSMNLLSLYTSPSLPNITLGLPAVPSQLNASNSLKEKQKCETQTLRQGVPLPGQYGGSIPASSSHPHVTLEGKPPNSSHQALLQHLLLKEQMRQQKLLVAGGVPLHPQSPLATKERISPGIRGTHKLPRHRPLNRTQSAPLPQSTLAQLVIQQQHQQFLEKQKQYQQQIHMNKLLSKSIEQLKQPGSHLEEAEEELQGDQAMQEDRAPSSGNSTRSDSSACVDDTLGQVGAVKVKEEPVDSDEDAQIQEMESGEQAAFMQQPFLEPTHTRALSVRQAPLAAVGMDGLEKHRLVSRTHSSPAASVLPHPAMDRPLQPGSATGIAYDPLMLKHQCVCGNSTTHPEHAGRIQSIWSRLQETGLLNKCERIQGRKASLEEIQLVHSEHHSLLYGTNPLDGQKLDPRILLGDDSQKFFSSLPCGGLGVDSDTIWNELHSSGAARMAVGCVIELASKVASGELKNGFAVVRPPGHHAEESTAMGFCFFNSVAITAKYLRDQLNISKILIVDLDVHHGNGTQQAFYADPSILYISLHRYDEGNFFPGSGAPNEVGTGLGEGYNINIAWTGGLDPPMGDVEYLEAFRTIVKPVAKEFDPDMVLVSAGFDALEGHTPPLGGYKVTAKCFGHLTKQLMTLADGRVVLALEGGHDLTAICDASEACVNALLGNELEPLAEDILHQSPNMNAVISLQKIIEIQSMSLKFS

HDAC10 = target: T1, HDAC10 (Homo sapiens, UniProt Q969S8); test: HDAC10 continuous fluorescence deacylation assay
T1 sequence (Q969S8 1-669): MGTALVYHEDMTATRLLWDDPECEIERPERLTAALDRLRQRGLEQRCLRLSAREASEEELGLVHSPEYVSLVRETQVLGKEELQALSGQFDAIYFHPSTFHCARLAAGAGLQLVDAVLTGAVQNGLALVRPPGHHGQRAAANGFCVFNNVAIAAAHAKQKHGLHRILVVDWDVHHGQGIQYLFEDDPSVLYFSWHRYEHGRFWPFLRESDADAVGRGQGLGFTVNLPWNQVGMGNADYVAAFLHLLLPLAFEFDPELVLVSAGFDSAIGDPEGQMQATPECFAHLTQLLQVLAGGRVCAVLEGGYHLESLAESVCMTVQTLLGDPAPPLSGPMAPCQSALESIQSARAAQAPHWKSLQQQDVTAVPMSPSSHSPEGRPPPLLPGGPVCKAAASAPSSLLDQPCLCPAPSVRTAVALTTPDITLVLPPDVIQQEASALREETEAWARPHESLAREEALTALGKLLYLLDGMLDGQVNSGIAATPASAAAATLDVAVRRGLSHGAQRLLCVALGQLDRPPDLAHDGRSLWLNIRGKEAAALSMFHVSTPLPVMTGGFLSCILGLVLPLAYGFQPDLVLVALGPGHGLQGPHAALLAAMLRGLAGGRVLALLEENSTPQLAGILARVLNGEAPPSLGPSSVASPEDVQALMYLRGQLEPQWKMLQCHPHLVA

HDAC3/NcoR2 = target: T2, HDAC3/NcoR2 (Homo sapiens, UniProt O15379); test: HDAC3 in vitro deacetylation assay (ZMAL); settings: mean ± SD
T2 construct: purchased BPS Bioscience 50003
T2 sequence (O15379 whole entry): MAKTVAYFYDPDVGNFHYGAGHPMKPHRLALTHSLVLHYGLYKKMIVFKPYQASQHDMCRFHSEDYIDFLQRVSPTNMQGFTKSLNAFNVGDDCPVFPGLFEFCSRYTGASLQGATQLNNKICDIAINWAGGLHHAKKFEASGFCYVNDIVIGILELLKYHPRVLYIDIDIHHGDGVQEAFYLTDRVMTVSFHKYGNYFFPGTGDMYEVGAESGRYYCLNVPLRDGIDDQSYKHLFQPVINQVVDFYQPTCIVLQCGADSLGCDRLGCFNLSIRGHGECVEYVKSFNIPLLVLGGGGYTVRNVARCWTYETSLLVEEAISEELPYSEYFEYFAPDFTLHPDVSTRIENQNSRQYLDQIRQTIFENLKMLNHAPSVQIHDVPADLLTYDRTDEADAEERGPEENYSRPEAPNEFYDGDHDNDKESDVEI
T2 sequence (Q9Y618 395-489 partner limits assumed): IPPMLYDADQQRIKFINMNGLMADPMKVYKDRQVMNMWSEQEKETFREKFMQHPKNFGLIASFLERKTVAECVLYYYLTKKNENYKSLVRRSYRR

HDAC7 = target: T3, HDAC7 (Homo sapiens, UniProt Q8WUI4); test: HDAC7 continuous fluorescence deacylation assay
T3 sequence (Q8WUI4 1-952): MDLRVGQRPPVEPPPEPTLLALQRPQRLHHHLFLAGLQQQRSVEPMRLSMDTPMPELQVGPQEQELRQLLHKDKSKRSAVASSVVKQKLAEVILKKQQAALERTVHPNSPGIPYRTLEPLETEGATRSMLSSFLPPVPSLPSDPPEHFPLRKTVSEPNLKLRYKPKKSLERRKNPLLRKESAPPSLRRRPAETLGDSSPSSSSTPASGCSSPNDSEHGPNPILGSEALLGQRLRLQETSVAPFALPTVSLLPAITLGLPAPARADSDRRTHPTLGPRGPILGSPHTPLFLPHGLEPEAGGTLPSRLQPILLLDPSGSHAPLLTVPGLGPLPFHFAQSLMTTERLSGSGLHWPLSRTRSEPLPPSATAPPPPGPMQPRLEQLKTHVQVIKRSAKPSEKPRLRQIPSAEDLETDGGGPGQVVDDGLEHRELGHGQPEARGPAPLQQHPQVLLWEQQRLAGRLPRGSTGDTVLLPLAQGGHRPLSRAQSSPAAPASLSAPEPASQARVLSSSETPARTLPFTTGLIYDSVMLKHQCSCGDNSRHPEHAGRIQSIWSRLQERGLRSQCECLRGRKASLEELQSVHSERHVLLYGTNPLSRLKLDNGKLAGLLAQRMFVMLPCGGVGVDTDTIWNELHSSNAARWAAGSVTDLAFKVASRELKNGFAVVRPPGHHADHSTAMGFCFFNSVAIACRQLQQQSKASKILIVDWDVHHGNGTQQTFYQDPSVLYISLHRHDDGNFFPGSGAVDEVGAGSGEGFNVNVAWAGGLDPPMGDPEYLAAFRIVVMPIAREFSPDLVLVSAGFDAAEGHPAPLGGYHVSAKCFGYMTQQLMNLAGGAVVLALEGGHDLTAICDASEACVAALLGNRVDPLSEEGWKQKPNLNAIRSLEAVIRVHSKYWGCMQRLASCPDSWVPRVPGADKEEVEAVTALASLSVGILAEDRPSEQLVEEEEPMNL

Sirt5 = target: T4, Sirt5 (Homo sapiens, UniProt Q9NXA8); test: Sirt5 in vitro deacylation HPLC assay
T4 sequence (Q9NXA8 37-310): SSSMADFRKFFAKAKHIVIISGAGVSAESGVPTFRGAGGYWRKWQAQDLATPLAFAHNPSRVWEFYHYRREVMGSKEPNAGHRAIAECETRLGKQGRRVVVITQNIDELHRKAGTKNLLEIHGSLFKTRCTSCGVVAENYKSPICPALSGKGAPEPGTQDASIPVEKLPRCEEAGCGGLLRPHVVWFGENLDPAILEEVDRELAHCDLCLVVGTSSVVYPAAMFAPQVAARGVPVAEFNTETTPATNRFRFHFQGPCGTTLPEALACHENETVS

CCCCN(Cc1ccc(C(=O)NO)cc1)C(=O)CCCCn1cc(COc2cccc(Cc3cnc(NC(=O)CSc4nc(C)cc(C)n4)s3)c2)nn1 [Compound 33, 4-((N-Butyl-5-(4-((3-((2-(2-((4,6-dimethylpyrimidin-2-yl)thio)acetamido)thiazol-5-yl)methyl)phenoxy)methyl)-1H-1,2,3-triazol-1-yl)pentanamido)methyl)-N-hydroxybenzamide]
IC50 (Sirt2 (demyristoylation)): 0.88 ± 0.09 µM
IC50 (Sirt6): > 500 µM
inhibition at 200 µM (Sirt6; @ 200 µM, read-out: Sirt6 percentual inhibition): 0%
inhibition at 500 µM (Sirt6; @ 500 µM, read-out: Sirt6 percentual inhibition): 10%
IC50 (HDAC9): > 20 µM
inhibition at 6 µM (HDAC9; @ 6 µM, read-out: HDAC9 percentual inhibition): 17%
inhibition at 20 µM (HDAC9; @ 20 μM, read-out: HDAC9 percentual inhibition): 37%
IC50 (HDAC10): > 6 µM
inhibition at 6 µM (HDAC10; @ 6 µM, read-out: HDAC10 percentual inhibition): 27%
inhibition at 20 µM (HDAC10; @ 20 μM, read-out: HDAC10 percentual inhibition): 64%
IC50 (HDAC3/NcoR2): 2.5 ± 0.2 µM
IC50 (HDAC7): > 6 µM
inhibition at 6 µM (HDAC7; @ 6 µM, read-out: HDAC7 percentual inhibition): 29%
inhibition at 20 µM (HDAC7; @ 20 μM, read-out: HDAC7 percentual inhibition): 57%
IC50 (Sirt5): > 500 µM
inhibition at 200 µM (Sirt5; @ 200 µM, read-out: Sirt5 percentual inhibition): -2%
inhibition at 500 µM (Sirt5; @ 500 µM, read-out: Sirt5 percentual inhibition): -1%
